2 compounds from patent publication EP3381907A1, “SYMMETRICAL 2-AMINOPHENYL-BENZAZOLYL-5-ACETATE COMPOUNDS AND THEIR USE AS ANTI-HEPARANASE” (Leadiant Biosciences SA, priority 2017, dated 2018) can be followed below.

The structures appear in SMILES notation. Some results are limits rather than exact numbers.

A word on the inhibition: it is the change of the read-out against control, counted positive when it falls.

The subject of assay [1] is U2OS (human osteosarcoma). The experiment in a line: SRB Cell Cytotoxicity Assay, U2OS. The assay is classed as cell-based. As to conditions: 72h treatment, read-out: Concentration (µM) of test compounds at which the cell growth is inhibited by 50 %. U2OS. The source says:
(§1) SRB Cell Cytotoxicity Assay is an assay based upon the quantitative staining of cellular proteins by sulforhodamine B (SRB). This assay can be used for high-throughput drug screening (Vichai & Kirkitara, Nature Protocol. 2006, 1, 112). Sulforhodamine B is an anionic aminoxanthene dye that forms an electrostatic complex with the basic amino acid residues of proteins under moderately acid conditions, which provides a sensitive linear response.
(§2) To assess a putative antiproliferative activity of the selected compounds, HT1080 (human fibrosarcoma), U87MG (human glioblastoma astrocytoma) and U2OS (human osteosarcoma) cell lines were treated for 72h, in triplicate, with increasing concentrations of heparanase inhibitors. Inhibition of cell proliferation was then measured by the classical colorimetric SRB Cell Cytotoxicity assay. Absorbance was measured by spectrophotometer at a wavelength of 510 nm and cell proliferation was determined as percent with respect to control cells (cells treated with the vehicle alone). EC50 values were then determined by GraphPad Prism.

In the next assay the test system is HPSE-1. The assay can be described thus: Real-Time quantitative PCR of HPSE-1 mRNA in HT1080 cells. The class given is cell-based, human. The note with it: 24 h. Here is the method:
(§3) To evaluate the effect of heparanase inhibitors on the tumor transcription of genes encoding for proangiogenic factors, such as FGF1/2, VEGF, MMP-9, HSPE-1, the relative mRNA levels were analyzed by quantitative Real-Time Quantitative PCR. To perform the assay, HT1080 (human fibrosarcoma) cells were cultured in complete medium containing 10%FCS (fetal calf serum). Cells were plated in 24-well plates and treated at fixed concentration (i.e., highest non-toxic concentration) of test compounds. After 24 h, cells were detached, collected and total RNA extracted by RNeasy Mini Kit (QIAGEN). Following reverse transcription step, FGF1/2, VEGF, MMP-9, HSPE-1 mRNA levels, were quantified by qPCR using the advanced Universal SYBR Green Supermix (Bio Rad) and ABI PRISM 7900HT Thermal Cycler System (Perkin Elmer), according to the manufacturer's instructions. Appropriate no-RT and non-template controls were included in each 96-well PCR reaction, and dissociation analysis was performed at the end of each run to confirm the specificity of the reaction. Relative levels of RNA were calculated using the ddCt method. Standard curve and sample data were run in duplicate.
(§4) In the Table 5 a mean value is reported.

Assay [2] deals with U2OS (human osteosarcoma). The experiment in a line: Matrigel cell invasion assay, U2OS. The assay is classed as cell-based. The note with it: Homo sapiens, test compound at 2.5 µM, 24 h pre-treatment, 24 h invasion. Here is the method:
(§5) Heparanase inhibitors were then evaluated for their activity on the invasive potential of HT1080 (human fibrosarcoma), U87MG (human glioblastoma astrocytoma) and U2OS (human osteosarcoma) human cell lines, using the Matrigel cell invasion assay which allows to assess the cell invasion ability of malignant and normal cells.
(§6) Invasion assay was performed using BioCoat cell culture inserts (BioCoat 8.0µm PET Membrane 24 Well Permeable Supports, Corning). Filters were coated with 100 µl of 300 µg/ml Matrigel dissolved in coating buffer (0.01 M Tris pH 8.0, 0.7% NaCl) (Becton-Dickinson Sciences). DMEM (Dulbecco's Modified Eagle's Medium) containing 5% FBS was added to the lower chambers. Cells were pre-treated with heparanase inhibitors for 24 h, detached and added to the upper chambers in media containing the inhibitors. Cells were allowed to invade for 24 h at 37°C in a CO2 incubator and then unmigrated cells were removed from the upper chamber with a cotton swab. The invading cells were fixed, stained with 0.1% crystal violet for 10 min at room temperature, photographed and counted under inverted microscope.
(§7) Test compounds were analyzed at fixed concentration (2.5 µM) for several fields, in duplicates. Activity of test compounds was compared to the reference compound. Activity of most interesting compound was confirmed in a second cell invasion assay. Data were expressed as the percent invasion with respect to cell migration through uncoated insert membrane (see Table 3 below)
(§8) Table 3. […] In Invasion assay, data were expressed as the percent invasion (range) with respect to cell migration through uncoated insert membrane. In Adhesion assay, data were expressed as the percent of adhesion with respect to the control (100%). • Legend • ++: 50-90% • + : < 50% • - : Not Active

The next assay deals with FGF-1. The assay can be described thus: Real-Time quantitative PCR of FGF-1 mRNA in HT1080 cells. The assay is classed as cell-based, human. The note with it: 24 h. Here is the method:
as §3, §4

Assay [3] concerns U87MG (human glioblastoma astrocytoma). The experiment in a line: Matrigel cell invasion assay, U87MG. The class given is cell-based. The note with it: Homo sapiens, U-87 MG, test compound at 2.5 µM, 24 h pre-treatment, 24 h invasion. Here is the method:
as §5, §6, §7, §8

The test system is the same in assay [4]. The experiment in a line: SRB Cell Cytotoxicity Assay, U87MG. The assay is classed as cell-based. The note with it: U-87 MG, 72h treatment, read-out: Concentration (µM) of test compounds at which the cell growth is inhibited by 50 %. U87MG.
Description: as §1, §2

Assay [5] concerns HT1080 (human fibrosarcoma). The assay can be described thus: Matrigel cell invasion assay, HT1080. The note with it: HT-1080, HT1080, test compound at 2.5 µM, 24 h pre-treatment, 24 h invasion. The assay is classed as cell-based. Here is the method:
as §5, §6, §7, §8

As to `O=C(O)CNC(=O)Cc1ccc2oc(-c3ccc(NC(=O)Nc4ccc(-c5nc6cc(CC(=O)NCC(=O)O)ccc6o5)cc4F)c(F)c3)nc2c1` [Compound 25, 2,2'-((2,2'-(((Carbonylbis(azanediyl))bis(3-fluoro-4,1-phenylene))bis(benzo[d]oxazole-2,5-diyl))bis(acetyl))bis(azanediyl))diacetic acid], the EC50 in assay [1] and in assay [4] was over 10 µM in each case. The “Gene Expression (% mRNA vs. control) HPSE-1” value with HPSE-1 (10.0 uM) is recorded as “∼ 62%”. Also, the inhibition at 2.5 µM in assay [2] was under 50%; in assay [3], 50 to 90%; in assay [5], 50 to 90%. The “Gene Expression (% mRNA vs. control) FGF-1” value in the assay with FGF-1 (10.0 uM) is listed as “∼ 52%”.
On to `O=C(O)Cc1ccc2oc(-c3ccc(NC(=O)Nc4ccc(-c5nc6cc(CC(=O)O)ccc6o5)cc4F)c(F)c3)nc2c1` [Compound 20, 2,2'-(((Carbonylbis(azanediyl))bis(3-fluoro-4,1-phenylene))bis(benzo[d]oxazole-2,5-diyl))diacetic acid], for which the EC50 in assay [1] and in assay [4] was over 10 µM each time. Moreover, in the assay with HPSE-1 (2.5 uM), the “Gene Expression (% mRNA vs. control) HPSE-1” value is reported as “∼ 100%”. In addition, the figures for the inhibition at 2.5 µM in assay [2], in assay [3] and in assay [5] were 50 to 90%, 50 to 90% and under 50%, respectively. For the same compound, in the assay with FGF-1 (2.5 uM), the “Gene Expression (% mRNA vs. control) FGF-1” value is listed as “∼ 85%”.
